# Test results from publication PMC5661635, “Targeting the CXCR4/CXCL12 axis with the peptide antagonist E5 to inhibit breast tumor progression” (Signal Transduction and Targeted Therapy, 2017).
# No end group written: not given here.
# What was measured:
# CXCR4 = conditions: cited from earlier work
# Excerpt: Nevertheless, challenges still exist in clinical applications. […] In addition, it is known that existing pep ...
# 4T1 tumors = test: 4T1 breast cancer model in BALB/c mice; assay type: in vivo; conditions: day 33 after inoculation; E5 40 mg kg^-1 s.c. every other day; PTX 8 mg kg^-1 i.p. once a week; n=9
# Procedure: For animal experiments, 1×10^6 4T1 cells were orthotopically inoculated into the right fourth mammary fat pat of BALB/c mice. Seven days after inoculation, the mice were randomized in six groups (n=9 for each group): the control group, the E5 (40 mg kg^−1) group, the chemotherapeutic drug groups (cyclophosphamide (CTX, 90 mg kg^−1) or paclitaxel (PTX, 8 mg kg^−1)), and a group consisting of E5 combined with one of the drugs. E5 solution was subcutaneously injected around solid tumors every other day, and drugs were intraperitoneally injected once a week. The control tumor-bearing mice were treated an equal volume of solvent. The tumor sizes were measured every four days with a caliper. Tumor volume was calculated according to the formula: V=(a×b^2)/2, where a and b are the maximal and minimal diameter in millimeters, respectively. On day 33 after cell injection, the mice were killed by cervical dislocation. The tumors and main organs from each group were weighed immediately after dissection and preserved at −80 °C for further analysis.
# HUVECs = test: CCK-8 cell viability assay; assay type: cell-based, human; conditions: E5 concentrations up to 100 μM, 24 h
# 4T1 cells = test: Drug sensitivity under CXCL12 stimulus or conditional medium (CCK-8); assay type: cell-based, murine; conditions: E5 10 μM; MS-5 conditional medium or medium with 200 ng ml^-1 CXCL12; paclitaxel 4, 20, 100 nM, elemene 10, 20, 40 mg l^-1, cisplatin 2, 4, 8 μM; 24 h
# Procedure: Briefly, 1×10^4 4T1 cells were pre-seeded in 96-well culture plates and incubated overnight. Then, the cells were treated with 10 μM E5 in serum-free medium for 2 h, followed by the addition of either complete medium with 200 ng ml^−1 CXCL12 or conditional medium obtained from 48 h of incubation with MS-5 cells for an additional 4 h of treatment. After that, the cells were incubated the chemotherapeutic drugs paclitaxel (4, 20 and 100 nM), elemene (10, 20 and 40 mg l^−1), or cisplatin (2, 4 and 8 μM) for an additional 24 h. The 4T1 cell viability was analyzed using the CCK-8 assay. The absorbance value of 4T1 cells in the absence of drug treatment was set as 100%.
# [1] = E5 every other day in healthy BALB/c mice; cited from earlier work
# Procedure: (§1) The cytotoxicity of blocking CXCR4 with antagonists depends on the concentration and the cell types. For instance, CXCR4 antagonist BKT140 could induce 15–35% cell death at 4 or 8 μM. When its concentration was high as 20 μM, the cell death rate was about 60%.[35]
# [2] = tested on: multiple acute myeloid leukemia cell lines; conditions: E5 below 30 μM; cited from earlier work
# Procedure: as §1
# [3] = in vivo; cited from earlier work
molecule,measurement,setting,value
"c1cc(CN2CCCNCCNCCCNCC2)ccc1CN1CCCNCCNCCCNCC1 [AMD3100, Plerixafor]",agonist activity,CXCR4,weak partial agonist activity
"CC(=O)O[C@H]1C(=O)[C@@]2(C)[C@H]([C@H](OC(=O)c3ccccc3)[C@]3(O)C[C@H](OC(=O)[C@H](O)[C@@H](NC(=O)c4ccccc4)c4ccccc4)C(C)=C1C3(C)C)[C@]1(OC(C)=O)CO[C@@H]1C[C@@H]2O [PTX, paclitaxel]",effect on tumor weight compared with the control group,4T1 tumors,did not show a significant inhibitory effect
GGRSFFLLRRIQGCRFRNTVDD [E5],cytotoxicity to HUVECs,HUVECs,did not show obvious cytotoxicity
same,"effect on cytotoxic effects of paclitaxel, elemene and cisplatin to 4T1",4T1 cells,could enhance the cytotoxic effects
same,"side effects (organs weight, serum clinical parameters, H&E of heart, kidney, lung, spleen)",[1],did not show detectable side effects
same,direct induction of cell death,[2],did not induce cell death directly
LY2510924,half-life,[3],3 to 5 h
